Results: patent US11807640B1 (priority 2023, dated 2023)
Converted amounts (≈) assume the structure as drawn.

Legend:
[1] = test system: MDR-MTB (Multidrug-resistant Mycobacterium tuberculosis); experiment: microbe, parasite or virus in culture; assay type: cell-based; conditions: 192 h, read-out: MIC (μg/mL) MDR-MTB
[2] = test system: XDR-MTB (Extensively drug-resistant Mycobacterium tuberculosis); experiment: microbe, parasite or virus in culture; assay type: cell-based; conditions: 192 h, read-out: MIC (μg/mL) XDR-MTB

Question: For `COC(=O)c1c(C(=O)OC)c2cc(C(=O)OC(C)C)ccn2c1C(=O)c1ccc(Br)cc1` [KNV-7, 7-Isopropyl 1,2-dimethyl 3-(4-bromobenzoyl)indolizine-1,2,7-tricarboxylate], which MIC [1] is on record?
Answer: Its MIC is 8 µg/mL (≈ 15.9 µM).

Question: What about the MIC [2] of the same compound?
Answer: The MIC was 8 µg/mL (≈ 15.9 µM).

Question: With `CCOC(=O)c1cc(C(=O)c2ccc(F)cc2)n2ccc(C(=O)OC(C)C)cc12` [KNV-4, 1-Ethyl 7-isopropyl 3-(4-fluorobenzoyl)indolizine-1,7-dicarboxylate] as the compound, how does the MIC [1] read?
Answer: Its MIC is 4 µg/mL (≈ 10.1 µM).

Question: And the MIC [2]?
Answer: Its MIC is 32 µg/mL (≈ 80.5 µM).
